Structures can show the parent of a compound that is named as a salt. Where two headings read alike, the source gives them in different places.
How the values were obtained:
mice = test: animal or person; format: in vivo; settings: Mus musculus, read-out: ED50 (dose effective in 50 percent of the treated mice), analgetic effect
[1] = test system: depressant action of tetrabenazine in mice; test: anti-depressant effect: antagonism of the depressant action of tetrabenazine in mice; format: in vivo; settings: Mus musculus, read-out: ED50 (dose effective in 50 percent of the treated mice), anti-depressant effect
Procedure: The anti-depressant effect of some compounds of this invention was assessed by their ability to antagonize the depressant action of tetrabenazine (2-oxo-3-isobutyl-9,10-dimethoxy- 1,2,3,4,6,7 -hexahydro-11bH-benzo[a]quinolizine) in mice [Englehardt et al. J. Med. Chem. 11 (2), 325 (1968)].

SMILES | ED50 (mice) [mg/kg] | ED50 ([1]; mice, antagonism of depressant action of tetrabenazine) [mg/kg] | ED50 [1] [mg/kg]
CCC(=O)O[C@](Cc1ccccc1)(c1ccccc1)[C@H](C)CN(C)C [Darvon®, reference compound] | 11.2 | – | –
CCOC(=O)C1(c2ccccc2)CCN(C)CC1 [Demerol®, reference compound] | 6.4 | – | –
CN(C)CCC=C1c2ccccc2CCc2ccccc21 [Elavil®, reference compound] | – | 1.1 | –
CCC(=O)N(c1ccccc1OC)C1CCN(CCOc2ccccc2)C1 (stereo not drawn) [Example 4, 1-(2-phenoxethyl)-3-[N-(2-methoxyphenyl)propionamido]pyrrolidine] | 6.8 | – | –
C=CCN1CCC(N(C(=O)CC)c2ccccc2)C1 (stereo not drawn) [Example 5] | 8 | – | –
CN1CCC(N(C(=O)c2ccc(Cl)cc2)c2ccccc2)C1 (stereo not drawn) [Example 15, 1-methyl-3-[N-phenyl-(4-chlorobenzamido)]pyrrolidine fumarate] | 5.2 | – | 0.6
CCC(=O)N(c1ccccc1)C1CCN(CCOc2ccccc2)C1 (stereo not drawn) [Example 17, 1-(2-phenoxyethyl)-3-(N-phenylpropionamido)pyrrolidine hydrochloride] | 14.2 | – | –
CCC(=O)N(c1ccccc1)C1CCN(CCOc2ccccc2OC)C1 (stereo not drawn) [Example 18, 1-[2-(2-methoxyphenoxy)ethyl]-3-(N-phenylpropionamido)-pyrrolidine] | 3.4 | – | –
CN1CCC(N(C(=O)c2ccccc2)c2ccccc2)C1 (stereo not drawn) [Example 29] | – | – | 1.7
CN1CCC(N(C(=O)COc2ccc(Cl)cc2)c2ccccc2)C1 (stereo not drawn) [Example 31] | 16.5 | – | –
CN1CCC(N(C(=O)c2cccc(C(F)(F)F)c2)c2ccccc2)C1 (stereo not drawn) [Example 36] | – | – | 2.8
CN1CCC(N(C(=O)c2cccc(Cl)c2)c2ccccc2)C1 (stereo not drawn) [Example 37] | – | – | 2.8
CN1CCC(N(C(=O)c2ccc(F)cc2)c2ccccc2)C1 (stereo not drawn) [Example 38] | – | – | 4.8
CN1CCC(N(C(=O)c2ccc(Br)cc2)c2ccccc2)C1 (stereo not drawn) [Example 40] | – | – | 15.5
O=C(c1ccccc1)N(c1ccccc1)C1CCN(Cc2ccccc2)C1 (stereo not drawn) [Example 41] | – | – | 4.9
O=C(c1ccccc1)N(c1ccccc1)C1CCNC1 (stereo not drawn) [Example 42] | – | – | 2.4
CCN1CCC(N(C(=O)c2ccccc2)c2cccc(C(F)(F)F)c2)C1 (stereo not drawn) [Example 44] | – | – | 2
CCN1CCC(N(C(=O)c2ccc(Cl)cc2)c2ccc(Cl)cc2)C1 (stereo not drawn) [Example 47] | – | – | 4.9
CCN1CCC(N(C(=O)c2ccc(Cl)cc2)c2ccccc2)C1 (stereo not drawn) [Example 48] | – | – | 0.6
CN(C)CCCN1c2ccccc2CCc2ccccc21 [Tofranil®, reference compound] | – | – | 1.3
